Assay results published in the NIST ThermoML archive (doi:10.1016/j.fluid.2014.01.046).
Where “and” joins values, the source holds several entries; their conditions need not be identical. Equal entries are not always repeated. Numbers after ± are expanded uncertainties.

Columns and labels:
[1] = 298.15 K; 101.33 kPa; Liquid; Vibrating tube method
[2] = xn = mol fraction of the nth substance listed; details: 298.15 K, 101 kPa, Liquid, Vibrating tube method

In the case of CN(C)C=O [dimethylformamide], the mass density [1] is reported as 943.827 ± 2 kg/m3.
For C1CCCCC1 [cyclohexane], the mass density [1] was 773.814 ± 2 kg/m3.
Work on CCO [ethanol] yielded a mass density [1] of 785.106 ± 2 kg/m3.
In the case of CN(C)C=O [dimethylformamide] + C1CCCCC1, the mass density ([2]; x1 = 0.0013) is reported as 773.912 ± 2 kg/m3, the mass density ([2]; x1 = 0.0032) is reported as 774.059 ± 2 kg/m3 and the mass density ([2]; x1 = 0.00735) is reported as 774.39 ± 2 kg/m3. The mass density ([2]; x1 = 0.00767) was 774.433 ± 2 kg/m3, the mass density ([2]; x1 = 0.0142) was 774.963 ± 2 kg/m3 and the mass density ([2]; x1 = 0.0191) was 775.4 ± 2 kg/m3. The mass density ([2]; x1 = 0.0404) was 777.361 ± 2 kg/m3, the mass density ([2]; x1 = 0.05) was 778.28 ± 2 kg/m3 and 778.287 ± 2 kg/m3 and 778.289 ± 2 kg/m3 and the mass density ([2]; x1 = 0.0554) was 778.816 ± 2 kg/m3. It also gave a mass density ([2]; x1 = 0.8496) of 906.747 ± 2 kg/m3, a mass density ([2]; x1 = 0.8504) of 906.951 ± 2 kg/m3 and a mass density ([2]; x1 = 0.8533) of 907.513 ± 2 kg/m3. The mass density ([2]; x1 = 0.8999) was 918.584 ± 2 kg/m3, the mass density ([2]; x1 = 0.9245) was 924.576 ± 2 kg/m3 and the mass density ([2]; x1 = 0.969) was 935.786 ± 2 kg/m3.
